Measured values as given in patent publication US7354956B2, “Composition containing a sapogenin and use thereof” (L'Oreal, priority 2002, dated 2008).
Like-named read-outs stand apart in the source and are kept apart here.

Tested on: nerve/muscle (motor plate) junction, phrenic nerve/diaphragm preparation (striated muscle)
Test: Muscle-relaxant effect on contractions of isolated rat phrenic nerve/diaphragm preparation induced by indirect stimulation via the phrenic nerve
Settings: for inhibition at 10 µM / IC50: Rattus norvegicus; for inhibition at 10 µM: read-out: % INHIBITION OF CONTRACTIONS; for IC50: cumulative concentrations 10^−10 M to 10^−5 M, read-out: IC50 (concentration to obtain 50% of the inhibitory effect)
Protocol: Hecogenin acetate and diosgenin, sold by Sigma, were tested on a model of nerve/muscle (motor plate) junction obtained in a phrenic nerve/diaphragm preparation isolated from rat (striated muscle) (Pollard B. J. et al, Br. J. Anaesth., 1988, 61, 419-424).
The phrenic nerve and the diaphragm are carefully isolated and placed in a 50 ml tank filled with survival liquid (Krebs-Henseleit liquid) maintained at a temperature of 37° C. and oxygenated with an oxygen/CO2 mixture (95/5).
The tension variations of the diaphragm are recorded with an initial pre-load of several grams.
After a relaxation period of 30 minutes, the diaphragm is stimulated indirectly via the phrenic nerve. […]

[1] = contractions induced by indirect stimulation via phrenic nerve

Row | SMILES | inhibition of the contractions induced by the indirect stimulations (concentration 10^−4 M) | effect on the contractions induced by the indirect stimulations (concentration 10^−5 M) | inhibition at 10 µM (concentration 10^−5 M, contractions induced by indirect stimulation via phrenic nerve) [%] | IC50 [1] [nM] | inhibition at 10 µM [%]
1 | CCN(CCCc1ccccc1)CCCc1ccccc1 [alverine, reference compound] | completely inhibits | no effect |  |  | 
2 | C[C@@H]1CC[C@@]2(OC1)O[C@H]1C[C@H]3[C@@H]4CC=C5C[C@@H](O)CC[C@]5(C)[C@H]4CC[C@]3(C)[C@H]1[C@@H]2C [Diosgenin] |  |  | 100 | 1000 | 
3 | CC(=O)O[C@H]1CC[C@@]2(C)[C@@H](CC[C@@H]3[C@@H]2CC(=O)[C@]2(C)[C@@H]4[C@H](C[C@@H]32)O[C@]2(CC[C@@H](C)CO2)[C@H]4C)C1 [Hecogenin acetate] |  |  |  | 2500 | 100
